ChEMBL document CHEMBL1125977, “2-aryl-1,2-dihydro-6,7-dimethoxyquinazoline-3-oxides with positive inotropic activity” (1991)

Tests used:
[1] = test system: Canis familiaris; experiment: Inotropic activity of compound was evaluated as % change in mean arterial blood pressure at a dose of 8.75 (mg/Kg) in anesthetized dog; type: functional, Canis lupus familiaris
[2] = test system: Canis familiaris; experiment: Inotropic activity of compound was evaluated as % change in heart rate at a dose of 8.75 (mg/Kg) in anesthetized dog; type: functional, Canis lupus familiaris
[3] = test system: Canis familiaris; experiment: Inotropic activity of compound was evaluated as % increase in cardiac force at a dose of 8.75 (mg/Kg) in anesthetized dog; type: functional, Canis lupus familiaris, Heart
[4] = test system: Canis familiaris; experiment: Inotropic activity of compound was evaluated as % change in heart rate at a dose of 10 (mg/Kg, intraduodenally) in anesthetized dog; type: functional, Canis lupus familiaris
[5] = test system: Canis familiaris; experiment: Inotropic activity of compound was evaluated as % change in heart rate at a dose of 1.87 (mg/Kg) in anesthetized dog; type: functional, Canis lupus familiaris
[6] = test system: Canis familiaris; experiment: Inotropic activity of compound was evaluated as % increase in cardiac force at a dose of 10 (mg/Kg, intraduodenally) in anesthetized dog; type: functional, Canis lupus familiaris, Heart
[7] = test system: Canis familiaris; experiment: Inotropic activity of compound was evaluated as % change in mean arterial blood pressure at a dose of 1.87 (mg/Kg) in anesthetized dog; type: functional, Canis lupus familiaris
[8] = test system: Canis familiaris; experiment: Inotropic activity of compound was evaluated as % change in mean arterial blood pressure at a dose of 10 (mg/Kg, intraduodenally) in anesthetized dog; type: functional, Canis lupus familiaris
[9] = test system: Canis familiaris; experiment: Inotropic activity of compound was evaluated as % increase in cardiac force at a dose of 1.87 (mg/Kg) in anesthetized dog; type: functional, Canis lupus familiaris, Heart
[10] = test system: Canis familiaris; experiment: Inotropic activity of compound was evaluated as % change in heart rate at a dose of 8.28 (mg/Kg) in anesthetized dog; type: functional, Canis lupus familiaris
[11] = test system: Canis familiaris; experiment: Inotropic activity of compound was evaluated as % increase in cardiac force at a dose of 8.28 (mg/Kg) in anesthetized dog; type: functional, Canis lupus familiaris, Heart
[12] = test system: Canis familiaris; experiment: Inotropic activity of compound was evaluated as % change in mean arterial blood pressure at a dose of 8.28 (mg/Kg) in anesthetized dog; type: functional, Canis lupus familiaris

Work on `COc1cc2nc(-c3ccccc3)[n+]([O-])c(C)c2cc1OC` yielded an MABP [1] of 0%, an HR [2] of 5% and a CF [3] of 29%.
Compound `COc1cc2c(cc1OC)C(C)=[N+]([O-])C(c1ccco1)N2` (stereo not given) has an MABP [1] of -14%, an HR [2] of 20% and a CF [3] of 123%.
In the case of `COc1cc2c(cc1OC)C(C)=[N+]([O-])C(c1ccncc1)N2` (stereo not given), the MABP [1] is reported as 0%, the HR [2] is reported as 8% and the CF [3] is reported as 29%.
`COc1cc2c(cc1OC)C(C)=[N+]([O-])C(c1ccccc1)N2` (stereo not given) showed an HR [4] of 37%, an MABP [1] of -28% and an HR [5] of 12%. For the same compound, the HR [2] was 47%, the CF [6] was 157% and the MABP [7] was -3%. The CF [3] was 137%, the MABP [8] was -15% and the CF [9] was 42%.
Work on `COc1ccc(C2Nc3cc(OC)c(OC)cc3C(C)=[N+]2[O-])cc1` (stereo not given) yielded an HR [5] of 8%, an MABP [7] of -6% and a CF [9] of 29%.
`COc1cc2nc(-c3ccccc3)nc(C)c2cc1OC` gave an HR [5] of -4%, an MABP [7] of -20% and a CF [9] of -14%.
`COc1cc2c(cc1OC)C(C)=[N+]([O-])C(c1cccs1)N2` (stereo not given) showed an MABP [1] of -31%, an HR [2] of 21% and a CF [3] of 75%.
Compound `COc1cc2c(cc1OC)C(C)=[N+]([O-])C(c1ccc3c(c1)OCO3)N2` (stereo not given) has an MABP [1] of -38%, an HR [2] of 39% and a CF [3] of 124%.
Compound `COc1cc2c(cc1OC)C(C)=[N+]([O-])C(c1ccccn1)N2` (stereo not given) has an MABP [1] of 0%, an HR [2] of 16% and a CF [3] of 45%.
Work on `COc1cc2c(cc1OC)C(C)=[N+]([O-])C(c1ccc(C)cc1)N2` (stereo not given) yielded an HR [5] of 10%, an MABP [7] of -6% and a CF [9] of 45%.
With `COc1cc2c(cc1OC)C(C)=[N+]([O-])C(c1cc3c(cc1[N+](=O)[O-])OCO3)N2` (stereo not given) the MABP [1] was 0%, the HR [2] was 4% and the CF [3] was 17%.
`COc1cc2c(cc1OC)C(C)=[N+]([O-])C(c1cccc3c1OCO3)N2` (stereo not given) showed an HR [10] of 13%, a CF [11] of 45% and an MABP [12] of 10%.
In the case of `COc1cc2c(cc1OC)C(C)=[N+]([O-])C(c1c(F)c(F)c(F)c(F)c1F)N2` (stereo not given), the HR [5] is reported as 8%, the MABP [7] is reported as 2% and the CF [9] is reported as 33%.
